# Tests used:
# Assay type in all cases: physicochemical
# [1] = Excipient compatibility: degradation in experimental excipient mixtures at 50° C./75% RH
# [2] = Dynamic vapor sorption / water content versus relative humidity; details: 10% RH to 50% RH at room temperature
# Procedure: DVS/Dynamic Vapor Sorption) data were obtained as follows: Dynamic vapor sorption was performed using a SMS Advantage system. Approximately 10 mg of sample was subjected to varying humidities between 0% RH and 95% RH at 25° C. Evaluation was performed using the system software.
# [3] = Form conversion in aqueous organic solvent mixtures; details: aqueous organic solvent mixtures with very small quantities of water (1-2%)
smiles,measurement,setting,value
"C[C@@H]1OCC2(CCN(c3cnc(Sc4ccnc(N)c4Cl)c(N)n3)CC2)[C@@H]1N.C[C@@H]1OCC2(CCN(c3cnc(Sc4ccnc(N)c4Cl)c(N)n3)CC2)[C@@H]1N.O.O=C(O)CCC(=O)O.O=C(O)CCC(=O)O [Example 6, (3S,4S)-8-(6-amino-5-((2-amino-3-chloropyridin-4-yl)thio)pyrazin-2-yl)-3-methyl-2-oxa-8-azaspiro[4.5]decan-4-amine, succinate (1:1) hemihydrate, modification (form) HA]",degradation levels in excipient mixtures,[1]; all four experimental excipient mixtures (Mixtures 1-4),acceptable degradation levels
same,water content over 10% RH to 50% RH,[2],constant water content
"C[C@@H]1OCC2(CCN(c3cnc(Sc4ccnc(N)c4Cl)c(N)n3)CC2)[C@@H]1N.O=C(O)CCCCC(=O)O [Example 10, (3S,4S)-8-(6-amino-5-((2-amino-3-chloropyridin-4-yl)thio)pyrazin-2-yl)-3-methyl-2-oxa-8-azaspiro[4.5]decan-4-amine adipate (1:1), Modification A]","degradation with mixture containing mannitol, Ac-di-Sol and microcrystalline cellulose","[1]; mixture containing mannitol, Ac-di-Sol and microcrystalline cellulose (Mixture 4)",strong degradation
"C[C@@H]1OCC2(CCN(c3cnc(Sc4ccnc(N)c4Cl)c(N)n3)CC2)[C@@H]1N.O=C(O)CCC(=O)O [Example 11, (3S,4S)-8-(6-amino-5-((2-amino-3-chloropyridin-4-yl)thio)pyrazin-2-yl)-3-methyl-2-oxa-8-azaspiro[4.5]decan-4-amine, succinate (1:1), anhydrous form, Modification A]",conversion of solid form,[3],rapidly converted into Modification HA
"C[C@@H]1OCC2(CCN(c3cnc(Sc4ccnc(N)c4Cl)c(N)n3)CC2)[C@@H]1N [Example 13, (3S,4S)-8-(6-amino-5-((2-amino-3-chloropyridin-4-yl)thio)pyrazin-2-yl)-3-methyl-2-oxa-8-azaspiro[4.5]decan-4-amine free base Modification A]",degradation with excipient mixture containing HPMC,[1]; mixture containing HPMC (Mixture 2),strong degradation
